Where two headings read alike, the source gives them in different places.
What was measured:
Assay in all cases: KiNativ assay
Type in all cases: binding
Conditions in all cases: H929 live cell
SRPK1 = SRPK1 (Homo sapiens (Human), UniProt Q96SB4)
Description: (§1) Biochemical IC50s of the compounds of the present disclosure against various kinases were measured in a KiNativ assay. Compounds were screened in duplicate at 10 μM in H929 live cell. IC50 was measured via Mass spectroscopy (MS).

ILK = ILK (Homo sapiens (Human), UniProt Q13418)
Description: as §1

Wnk1, Wnk2, Wnk3 = system: Wnk1, Wnk2, Wnk3
Description: as §1

ULK1 = ULK1 (Homo sapiens (Human), UniProt O75385)
Description: as §1

SMG1 = SMG1 (Homo sapiens (Human), UniProt Q96Q15)
Description: as §1

MPSK1 = MPSK1 (Homo sapiens (Human), UniProt O75716)
Description: as §1

PRP4 = PRP4 (Homo sapiens (Human), UniProt Q13523)
Description: as §1

MST3 = MST3 (Homo sapiens (Human), UniProt Q9Y6E0)
Description: as §1

IKKe, TBK1 = system: IKKe, TBK1
Description: as §1

MAP2K5 = MAP2K5 (Homo sapiens (Human), UniProt Q13163)
Description: as §1

SLK = SLK (Homo sapiens (Human), UniProt Q9H2G2)
Description: as §1

MAP3K1 = MAP3K1 (Homo sapiens (Human), UniProt Q13233)
Description: as §1

CDK7 = CDK7 (Homo sapiens (Human), UniProt P50613)
Description: as §1

NuaK1 = NuaK1 (Homo sapiens (Human), UniProt O60285)
Description: as §1

PIK3CG = PIK3CG (Homo sapiens (Human), UniProt P48736)
Description: as §1

ZAK = ZAK (Homo sapiens (Human), UniProt Q9NYL2)
Description: as §1

MAP3K2 = MAP3K2 (Homo sapiens (Human), UniProt Q9Y2U5)
Description: as §1

MAP2K7 = MAP2K7 (Homo sapiens (Human), UniProt O14733)
Description: as §1

BRAF = BRAF (Homo sapiens (Human), UniProt P15056)
Description: as §1

MST1 = MST1 (Homo sapiens (Human), UniProt Q13043)
Description: as §1

LATS1 = LATS1 (Homo sapiens (Human), UniProt O95835)
Description: as §1

SNRK = SNRK (Homo sapiens (Human), UniProt Q9NRH2)
Description: as §1

MARK1, MARK2 = system: MARK1, MARK2
Description: as §1

NDR1 = NDR1 (Homo sapiens (Human), UniProt Q15208)
Description: as §1

PKD2 = PKD2 (Homo sapiens (Human), UniProt Q9BZL6)
Description: as §1

ABL, ARG = system: ABL, ARG
Description: as §1

PI4KA, PI4KAP2 = system: PI4KA, PI4KAP2
Description: as §1

PFTAIRE1 = PFTAIRE1 (Homo sapiens (Human), UniProt O94921)
Description: as §1

GSK3A = GSK3A (Homo sapiens (Human), UniProt P49840)
Description: as §1

MARK2 = MARK2 (Homo sapiens (Human), UniProt Q7KZI7)
Description: as §1

EphB2 = EphB2 (Homo sapiens (Human), UniProt P29323)
Description: as §1

MLKL = MLKL (Homo sapiens (Human), UniProt Q8NB16)
Description: as §1

TAO1, TAO3 = system: TAO1, TAO3
Description: as §1

CSK = CSK (Homo sapiens (Human), UniProt P41240)
Description: as §1

[1] = range class, read-out: % inhibition

Sequence of NDR1 (Q15208 whole entry): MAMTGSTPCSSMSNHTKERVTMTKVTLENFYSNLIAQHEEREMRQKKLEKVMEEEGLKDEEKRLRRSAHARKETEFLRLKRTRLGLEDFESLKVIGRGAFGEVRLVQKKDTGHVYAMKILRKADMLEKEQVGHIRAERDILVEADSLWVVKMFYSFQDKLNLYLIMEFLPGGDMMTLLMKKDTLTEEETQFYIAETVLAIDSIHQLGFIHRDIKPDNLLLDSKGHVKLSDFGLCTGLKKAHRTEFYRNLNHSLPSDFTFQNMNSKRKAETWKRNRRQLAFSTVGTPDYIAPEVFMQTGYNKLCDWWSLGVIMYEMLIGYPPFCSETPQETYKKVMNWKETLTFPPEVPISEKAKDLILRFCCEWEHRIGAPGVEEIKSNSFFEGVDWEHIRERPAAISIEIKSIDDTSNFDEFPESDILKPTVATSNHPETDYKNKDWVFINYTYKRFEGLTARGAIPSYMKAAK
Sequence of NuaK1 (O60285 whole entry): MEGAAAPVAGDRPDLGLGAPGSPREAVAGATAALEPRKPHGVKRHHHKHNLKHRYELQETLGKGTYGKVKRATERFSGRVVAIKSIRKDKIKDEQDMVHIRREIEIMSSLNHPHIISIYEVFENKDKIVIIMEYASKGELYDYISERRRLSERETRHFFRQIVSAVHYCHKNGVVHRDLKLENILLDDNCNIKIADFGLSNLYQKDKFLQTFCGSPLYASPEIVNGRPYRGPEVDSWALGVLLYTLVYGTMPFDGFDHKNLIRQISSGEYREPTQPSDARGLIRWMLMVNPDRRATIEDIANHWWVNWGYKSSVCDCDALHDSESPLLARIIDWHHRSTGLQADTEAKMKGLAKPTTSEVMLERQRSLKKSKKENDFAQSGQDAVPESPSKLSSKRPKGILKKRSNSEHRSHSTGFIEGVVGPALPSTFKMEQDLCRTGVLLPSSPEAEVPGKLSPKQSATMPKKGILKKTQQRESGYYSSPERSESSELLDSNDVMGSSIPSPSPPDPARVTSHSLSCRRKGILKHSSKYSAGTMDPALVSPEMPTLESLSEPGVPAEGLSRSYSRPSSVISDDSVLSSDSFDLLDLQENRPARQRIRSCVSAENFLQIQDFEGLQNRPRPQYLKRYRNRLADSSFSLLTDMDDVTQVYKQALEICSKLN
Sequence of MLKL (Q8NB16 whole entry): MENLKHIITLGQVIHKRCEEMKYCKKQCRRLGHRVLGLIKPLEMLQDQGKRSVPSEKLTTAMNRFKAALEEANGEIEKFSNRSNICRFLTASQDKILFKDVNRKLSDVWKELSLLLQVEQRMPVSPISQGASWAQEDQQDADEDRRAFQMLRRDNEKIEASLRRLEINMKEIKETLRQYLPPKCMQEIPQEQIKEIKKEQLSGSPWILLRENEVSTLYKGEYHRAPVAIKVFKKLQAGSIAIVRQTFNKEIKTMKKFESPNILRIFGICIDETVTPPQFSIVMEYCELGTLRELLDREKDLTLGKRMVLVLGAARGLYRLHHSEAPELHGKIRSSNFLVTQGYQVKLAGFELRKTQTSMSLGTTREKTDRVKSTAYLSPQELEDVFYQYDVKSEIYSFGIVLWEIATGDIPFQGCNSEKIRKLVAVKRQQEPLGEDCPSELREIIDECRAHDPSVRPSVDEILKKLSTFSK
Sequence of SRPK1 (Q96SB4 whole entry): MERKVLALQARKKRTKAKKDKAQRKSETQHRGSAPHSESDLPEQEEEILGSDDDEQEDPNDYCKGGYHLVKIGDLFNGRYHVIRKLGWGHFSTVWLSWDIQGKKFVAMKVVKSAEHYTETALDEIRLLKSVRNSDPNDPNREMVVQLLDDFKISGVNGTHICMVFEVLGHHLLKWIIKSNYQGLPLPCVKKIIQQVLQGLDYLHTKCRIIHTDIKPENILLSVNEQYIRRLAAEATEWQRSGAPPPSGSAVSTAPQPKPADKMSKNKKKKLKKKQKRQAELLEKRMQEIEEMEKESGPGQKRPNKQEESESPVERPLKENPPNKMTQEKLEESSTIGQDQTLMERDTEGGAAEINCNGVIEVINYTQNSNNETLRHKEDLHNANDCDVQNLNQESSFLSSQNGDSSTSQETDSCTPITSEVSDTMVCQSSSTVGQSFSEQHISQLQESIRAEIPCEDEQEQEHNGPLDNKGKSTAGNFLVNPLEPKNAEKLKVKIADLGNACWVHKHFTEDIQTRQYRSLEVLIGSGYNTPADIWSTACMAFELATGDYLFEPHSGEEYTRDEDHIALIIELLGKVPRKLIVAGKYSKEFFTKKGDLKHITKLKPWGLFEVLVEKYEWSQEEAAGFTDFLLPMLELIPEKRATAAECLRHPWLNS
Sequence of CSK (P41240 whole entry): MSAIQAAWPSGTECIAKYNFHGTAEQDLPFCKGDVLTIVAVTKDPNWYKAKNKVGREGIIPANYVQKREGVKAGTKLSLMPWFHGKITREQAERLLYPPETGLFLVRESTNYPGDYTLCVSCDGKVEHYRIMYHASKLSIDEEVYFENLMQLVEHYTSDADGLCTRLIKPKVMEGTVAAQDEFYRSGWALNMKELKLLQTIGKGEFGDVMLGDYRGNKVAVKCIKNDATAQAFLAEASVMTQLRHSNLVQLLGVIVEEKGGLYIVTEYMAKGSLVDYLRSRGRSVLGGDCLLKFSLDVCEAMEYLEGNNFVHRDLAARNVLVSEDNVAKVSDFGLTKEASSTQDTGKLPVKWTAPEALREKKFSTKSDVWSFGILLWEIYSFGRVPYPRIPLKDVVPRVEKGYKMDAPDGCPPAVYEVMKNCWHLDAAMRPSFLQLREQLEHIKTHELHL
Sequence of GSK3A (P49840 whole entry): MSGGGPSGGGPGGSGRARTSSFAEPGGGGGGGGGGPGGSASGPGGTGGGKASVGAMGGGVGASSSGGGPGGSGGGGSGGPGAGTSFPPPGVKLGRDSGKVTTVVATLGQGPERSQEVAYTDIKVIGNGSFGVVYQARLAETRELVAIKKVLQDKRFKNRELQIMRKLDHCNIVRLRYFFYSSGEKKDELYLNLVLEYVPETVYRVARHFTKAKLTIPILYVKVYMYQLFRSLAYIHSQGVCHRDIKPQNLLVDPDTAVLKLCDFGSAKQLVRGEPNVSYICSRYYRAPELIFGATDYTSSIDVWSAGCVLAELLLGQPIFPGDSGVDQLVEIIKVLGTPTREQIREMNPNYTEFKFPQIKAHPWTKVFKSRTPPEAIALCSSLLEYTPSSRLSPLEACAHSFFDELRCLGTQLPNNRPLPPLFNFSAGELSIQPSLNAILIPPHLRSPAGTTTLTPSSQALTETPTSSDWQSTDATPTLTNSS
Sequence of MPSK1 (O75716 whole entry): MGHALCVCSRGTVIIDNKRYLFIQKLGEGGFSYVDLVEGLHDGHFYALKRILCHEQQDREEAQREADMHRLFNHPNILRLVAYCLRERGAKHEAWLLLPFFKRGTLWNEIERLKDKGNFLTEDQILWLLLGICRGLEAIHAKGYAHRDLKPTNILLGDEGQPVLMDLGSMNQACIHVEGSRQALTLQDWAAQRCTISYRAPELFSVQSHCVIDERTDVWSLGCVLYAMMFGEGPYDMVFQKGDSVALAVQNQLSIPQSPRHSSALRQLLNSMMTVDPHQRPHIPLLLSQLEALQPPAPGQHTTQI
Sequence of MST1 (Q13043 whole entry): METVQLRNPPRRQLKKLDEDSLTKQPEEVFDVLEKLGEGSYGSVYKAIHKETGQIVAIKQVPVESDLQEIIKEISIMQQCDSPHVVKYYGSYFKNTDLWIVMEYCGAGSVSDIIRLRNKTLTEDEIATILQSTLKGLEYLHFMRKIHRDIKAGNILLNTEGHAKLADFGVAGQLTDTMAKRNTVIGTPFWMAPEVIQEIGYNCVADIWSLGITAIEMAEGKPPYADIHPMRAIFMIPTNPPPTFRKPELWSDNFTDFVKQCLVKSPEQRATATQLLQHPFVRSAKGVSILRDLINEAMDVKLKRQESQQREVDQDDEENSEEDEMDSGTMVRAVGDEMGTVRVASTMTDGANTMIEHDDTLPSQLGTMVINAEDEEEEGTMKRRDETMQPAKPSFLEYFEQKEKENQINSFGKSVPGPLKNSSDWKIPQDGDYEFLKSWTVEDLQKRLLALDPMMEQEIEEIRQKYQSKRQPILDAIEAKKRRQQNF
Sequence of PFTAIRE1 (O94921 whole entry): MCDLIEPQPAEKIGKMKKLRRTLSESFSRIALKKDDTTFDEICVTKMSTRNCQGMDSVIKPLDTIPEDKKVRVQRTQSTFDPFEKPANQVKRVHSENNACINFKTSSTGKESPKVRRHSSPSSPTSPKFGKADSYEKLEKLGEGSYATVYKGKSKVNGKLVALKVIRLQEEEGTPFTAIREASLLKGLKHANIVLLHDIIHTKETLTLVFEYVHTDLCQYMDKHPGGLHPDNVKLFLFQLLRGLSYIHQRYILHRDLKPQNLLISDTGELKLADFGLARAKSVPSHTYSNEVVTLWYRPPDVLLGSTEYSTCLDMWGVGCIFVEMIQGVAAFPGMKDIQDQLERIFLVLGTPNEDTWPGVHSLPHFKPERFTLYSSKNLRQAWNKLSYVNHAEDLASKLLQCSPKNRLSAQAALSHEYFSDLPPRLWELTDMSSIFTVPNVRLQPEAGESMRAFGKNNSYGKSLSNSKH
Sequence of PFTAIRE1 (Q8ND76 whole entry partner): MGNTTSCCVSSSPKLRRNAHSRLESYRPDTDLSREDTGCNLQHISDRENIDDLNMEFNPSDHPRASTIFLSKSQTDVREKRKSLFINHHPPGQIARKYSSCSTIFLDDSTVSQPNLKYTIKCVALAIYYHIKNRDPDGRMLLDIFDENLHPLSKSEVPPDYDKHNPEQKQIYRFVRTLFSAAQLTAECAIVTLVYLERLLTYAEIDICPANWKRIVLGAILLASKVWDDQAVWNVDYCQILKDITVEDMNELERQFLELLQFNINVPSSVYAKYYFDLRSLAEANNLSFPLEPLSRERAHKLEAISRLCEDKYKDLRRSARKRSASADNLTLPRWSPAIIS

## CN(C1CC1)S(=O)(=O)c1ccc(-c2cnc(N)c(-c3ccc4c(c3)CCNC4=O)c2)c(F)c1 [Compound I-28, 4-(6-amino-5-(1-oxo-1,2,3,4-tetrahydroisoquinolin-6-yl)pyridin-3-yl)-N-cyclopropyl-3-fluoro-N-methylbenzenesulfonamide]
SRPK1; read-out: % inhibition (range)
  inhibition at 10 µM: 0%
SRPK1; read-out: inhibition (10 μM)
  inhibition at 10 µM: 19.5%
ILK; read-out: % inhibition (range)
  inhibition at 10 µM: 0%
ILK; read-out: inhibition (10 μM)
  inhibition at 10 µM: -5.8%
Wnk1, Wnk2, Wnk3; 10 μM
  % inhibition (range): 0.0%
Wnk1, Wnk2, Wnk3
  inhibition (10 μM): −31.8%
ULK1; read-out: % inhibition (range)
  inhibition at 10 µM: 0%
ULK1; read-out: inhibition (10 μM)
  inhibition at 10 µM: -54.6%
SMG1; read-out: % inhibition (range)
  inhibition at 10 µM: 35 to 50%
SMG1; read-out: inhibition (10 μM)
  inhibition at 10 µM: 42.9%
MPSK1; read-out: % inhibition (range)
  inhibition at 10 µM: 0%
MPSK1; read-out: inhibition (10 μM)
  inhibition at 10 µM: -9.1%
PRP4; read-out: % inhibition (range)
  inhibition at 10 µM: 0%
PRP4; read-out: inhibition (10 μM)
  inhibition at 10 µM: 3.7%
MST3; read-out: % inhibition (range)
  inhibition at 10 µM: 50 to 75%
MST3; read-out: inhibition (10 μM)
  inhibition at 10 µM: 72.3%
IKKe, TBK1; 10 μM
  % inhibition (range): 0.0%
IKKe, TBK1
  inhibition (10 μM): −14.8%
MAP2K5; read-out: % inhibition (range)
  inhibition at 10 µM: 50 to 75%
MAP2K5; read-out: inhibition (10 μM)
  inhibition at 10 µM: 58%
SLK; read-out: % inhibition (range)
  inhibition at 10 µM: 50 to 75%
SLK; read-out: inhibition (10 μM)
  inhibition at 10 µM: 58.9%
MAP3K1; read-out: % inhibition (range)
  inhibition at 10 µM: > 90%
MAP3K1; read-out: inhibition (10 μM)
  inhibition at 10 µM: 91.1%
CDK7; read-out: % inhibition (range)
  inhibition at 10 µM: 0%
CDK7; read-out: inhibition (10 μM)
  inhibition at 10 µM: 12.3%
NuaK1
  inhibition (10 μM): 66.7%
NuaK1; read-out: % inhibition (range)
  inhibition at 10 µM: 50 to 75%
NuaK1; read-out: inhibition (10 μM)
  inhibition at 10 µM: 55.6%
PIK3CG; read-out: % inhibition (range)
  inhibition at 10 µM: 0%
PIK3CG; read-out: inhibition (10 μM)
  inhibition at 10 µM: 1.7%
ZAK; read-out: % inhibition (range)
  inhibition at 10 µM: 0%
ZAK; read-out: inhibition (10 μM)
  inhibition at 10 µM: 18.2%
MAP3K2; read-out: % inhibition (range)
  inhibition at 10 µM: 0%
MAP3K2; read-out: inhibition (10 μM)
  inhibition at 10 µM: 7%
MAP2K7; read-out: % inhibition (range)
  inhibition at 10 µM: 0%
MAP2K7; read-out: inhibition (10 μM)
  inhibition at 10 µM: -0.5%
BRAF; read-out: % inhibition (range)
  inhibition at 10 µM: 0%
BRAF; read-out: inhibition (10 μM)
  inhibition at 10 µM: -4.6%
MST1; read-out: % inhibition (range)
  inhibition at 10 µM: > 90%
MST1; read-out: inhibition (10 μM)
  inhibition at 10 µM: 94.5%
LATS1; read-out: % inhibition (range)
  inhibition at 10 µM: 0%
LATS1; read-out: inhibition (10 μM)
  inhibition at 10 µM: 4.8%
SNRK; read-out: % inhibition (range)
  inhibition at 10 µM: 0%
SNRK; read-out: inhibition (10 μM)
  inhibition at 10 µM: 0%
MARK1, MARK2; 10 μM
  % inhibition (range): 0.0%
MARK1, MARK2
  inhibition (10 μM): −1.3%
NDR1; read-out: % inhibition (range)
  inhibition at 10 µM: 0%
NDR1; read-out: inhibition (10 μM)
  inhibition at 10 µM: 24.6%
PKD2; read-out: % inhibition (range)
  inhibition at 10 µM: 35 to 50%
PKD2; read-out: inhibition (10 μM)
  inhibition at 10 µM: 38.9%
ABL, ARG; 10 μM
  % inhibition (range): 0.0%
ABL, ARG
  inhibition (10 μM): 13.3%
PI4KA, PI4KAP2; 10 μM
  % inhibition (range): 0.0%
PI4KA, PI4KAP2
  inhibition (10 μM): −13.2%
PFTAIRE1; read-out: % inhibition (range)
  inhibition at 10 µM: 0%
PFTAIRE1; read-out: inhibition (10 μM)
  inhibition at 10 µM: 22.2%
GSK3A; read-out: % inhibition (range)
  inhibition at 10 µM: > 90%
GSK3A; read-out: inhibition (10 μM)
  inhibition at 10 µM: 93.5%
MARK2; read-out: % inhibition (range)
  inhibition at 10 µM: 0%
MARK2; read-out: inhibition (10 μM)
  inhibition at 10 µM: 4.6%
EphB2; read-out: % inhibition (range)
  inhibition at 10 µM: 0%
EphB2; read-out: inhibition (10 μM)
  inhibition at 10 µM: -2%
MLKL; read-out: % inhibition (range)
  inhibition at 10 µM: 0%
MLKL; read-out: inhibition (10 μM)
  inhibition at 10 µM: 23.9%
TAO1, TAO3; 10 μM
  % inhibition (range): 75-90%
TAO1, TAO3
  inhibition (10 μM): 85.5%
CSK; read-out: % inhibition (range)
  inhibition at 10 µM: 0%
CSK; read-out: inhibition (10 μM)
  inhibition at 10 µM: 3.7%

## COc1cc(NS(=O)(=O)C2CC2)ccc1-c1cnc(N)c(-c2ccc3c(c2)CCNC3=O)c1 [Compound I-50, N-(4-(6-amino-5-(1-oxo-1,2,3,4-tetrahydroisoquinolin-6-yl)pyridin-3-yl)-3-methoxyphenyl) cyclopropanesulfonamide]
SRPK1; [1]
  inhibition at 10 µM: 0%
SRPK1; read-out: inhibition (10 μM)
  inhibition at 10 µM: -9.2%
ILK; [1]
  inhibition at 10 µM: 0%
ILK; read-out: inhibition (10 μM)
  inhibition at 10 µM: -18.8%
Wnk1, Wnk2, Wnk3; 10 μM, range class
  % inhibition: 0.0%
Wnk1, Wnk2, Wnk3
  inhibition (10 μM): 15.9%
ULK1; [1]
  inhibition at 10 µM: 0%
ULK1; read-out: inhibition (10 μM)
  inhibition at 10 µM: 28.8%
SMG1; [1]
  inhibition at 10 µM: 0%
SMG1; read-out: inhibition (10 μM)
  inhibition at 10 µM: 30.8%
MPSK1; [1]
  inhibition at 10 µM: 0%
MPSK1; read-out: inhibition (10 μM)
  inhibition at 10 µM: 15.7%
PRP4; [1]
  inhibition at 10 µM: 0%
PRP4; read-out: inhibition (10 μM)
  inhibition at 10 µM: -17.9%
MST3; [1]
  inhibition at 10 µM: 0%
MST3; read-out: inhibition (10 μM)
  inhibition at 10 µM: 20%
IKKe, TBK1; 10 μM, range class
  % inhibition: 0.0%
IKKe, TBK1
  inhibition (10 μM): 33.9%
MAP2K5; [1]
  inhibition at 10 µM: 0%
MAP2K5; read-out: inhibition (10 μM)
  inhibition at 10 µM: -12.1%
SLK; [1]
  inhibition at 10 µM: 50 to 75%
SLK; read-out: inhibition (10 μM)
  inhibition at 10 µM: 70.6%
MAP3K1; [1]
  inhibition at 10 µM: 75 to 90%
MAP3K1; read-out: inhibition (10 μM)
  inhibition at 10 µM: 86.7%
CDK7; [1]
  inhibition at 10 µM: 0%
CDK7; read-out: inhibition (10 μM)
  inhibition at 10 µM: 19.4%
NuaK1
  inhibition (10 μM): 61.5%
NuaK1; [1]
  inhibition at 10 µM: 50 to 75%
NuaK1; read-out: inhibition (10 μM)
  inhibition at 10 µM: 67.9%
PIK3CG; [1]
  inhibition at 10 µM: 0%
PIK3CG; read-out: inhibition (10 μM)
  inhibition at 10 µM: -74.9%
ZAK; [1]
  inhibition at 10 µM: 0%
ZAK; read-out: inhibition (10 μM)
  inhibition at 10 µM: 6.6%
MAP3K2; [1]
  inhibition at 10 µM: 0%
MAP3K2; read-out: inhibition (10 μM)
  inhibition at 10 µM: -39.1%
MAP2K7; [1]
  inhibition at 10 µM: 0%
MAP2K7; read-out: inhibition (10 μM)
  inhibition at 10 µM: 16.4%
BRAF; [1]
  inhibition at 10 µM: 0%
BRAF; read-out: inhibition (10 μM)
  inhibition at 10 µM: -35.8%
MST1; [1]
  inhibition at 10 µM: > 90%
MST1; read-out: inhibition (10 μM)
  inhibition at 10 µM: 97.5%
LATS1; [1]
  inhibition at 10 µM: 0%
LATS1; read-out: inhibition (10 μM)
  inhibition at 10 µM: 2.9%
SNRK; [1]
  inhibition at 10 µM: 0%
SNRK; read-out: inhibition (10 μM)
  inhibition at 10 µM: 33.2%
MARK1, MARK2; 10 μM, range class
  % inhibition: 0.0%
MARK1, MARK2
  inhibition (10 μM): −29.5%
NDR1; [1]
  inhibition at 10 µM: 0%
NDR1; read-out: inhibition (10 μM)
  inhibition at 10 µM: 20.2%
PKD2; [1]
  inhibition at 10 µM: 50 to 75%
PKD2; read-out: inhibition (10 μM)
  inhibition at 10 µM: 51.5%
ABL, ARG; 10 μM, range class
  % inhibition: 0.0%
ABL, ARG
  inhibition (10 μM): −53.7%
PI4KA, PI4KAP2; 10 μM, range class
  % inhibition: 0.0%
PI4KA, PI4KAP2
  inhibition (10 μM): 24.7%
PFTAIRE1; [1]
  inhibition at 10 µM: 0%
PFTAIRE1; read-out: inhibition (10 μM)
  inhibition at 10 µM: -2.4%
GSK3A; [1]
  inhibition at 10 µM: 75 to 90%
GSK3A; read-out: inhibition (10 μM)
  inhibition at 10 µM: 77.4%
MARK2; [1]
  inhibition at 10 µM: 0%
MARK2; read-out: inhibition (10 μM)
  inhibition at 10 µM: -8.6%
EphB2; [1]
  inhibition at 10 µM: 0%
EphB2; read-out: inhibition (10 μM)
  inhibition at 10 µM: 8.2%
MLKL; [1]
  inhibition at 10 µM: 0%
MLKL; read-out: inhibition (10 μM)
  inhibition at 10 µM: 8.2%
TAO1, TAO3; 10 μM, range class
  % inhibition: 0.0%
TAO1, TAO3
  inhibition (10 μM): 17.8%
CSK; [1]
  inhibition at 10 µM: 0%
CSK; read-out: inhibition (10 μM)
  inhibition at 10 µM: -4.3%

— patent publication US10710978B2, “STK4 inhibitors for treatment of hematologic malignancies” (Dana-Farber Cancer Institute, Inc., priority 2015, dated 2020)
